Source: PubChem BioAssay AID1919016 (Molecular Pharmacology Branch, DTP, NCI, 2023)

Test system: NCI-H196 complex spheroid growth, percent test/control
Assay: Anticancer human tumor NCI-H196 cell line growth inhibition [AhR];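 further: seven days of drug exposure starting three days after plating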;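 on viability, T/C: 100% = DMSO vehicle control wells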
Settings: for IC50: curve of first compound; for viability, T/C: stronger effect = lower value
How it was run: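 Agents were dosed in half-log steps down from roughly clinical Cmax, or from 10 microM where Cmax was unknown, alone and with AhR antagonists. Read-out: percent test/control growth of tumor spheroids containing HUVEC and MSC stromal cells.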

CCc1c2c(nc3ccc(O)cc13)-c1cc3c(c(=O)n1C2)COC(=O)[C@]3(O)CC + Cc1cncc(-c2nc(NCCc3c[nH]c4ccccc34)c3ncn(C(C)C)c3n2)c1
IC50 (second compound 0.1 µM): > 300 nM | IC50 (second compound 0.316 µM): > 300 nM | IC50 (second compound 1 µM): > 300 nM | IC50 (second compound 3.16 µM): > 300 nM | IC50 (second compound 10 µM): 104 nM | viability, T/C (second compound 0.1 µM, first compound 0.000949 µM): 99.9% | viability, T/C (second compound 0.1 µM, first compound 0.003 µM): 102% | viability, T/C (second compound 0.1 µM, first compound 0.00949 µM): 104% | viability, T/C (second compound 0.1 µM, first compound 0.03 µM): 102% | viability, T/C (second compound 0.1 µM, first compound 0.0949 µM): 87.6% | viability, T/C (second compound 0.1 µM, first compound 0.3 µM): 78.5% | viability, T/C (second compound 0.316 µM, first compound 0.000949 µM): 91.3% | viability, T/C (second compound 0.316 µM, first compound 0.003 µM): 91.9% | viability, T/C (second compound 0.316 µM, first compound 0.00949 µM): 96% | viability, T/C (second compound 0.316 µM, first compound 0.03 µM): 100% | viability, T/C (second compound 0.316 µM, first compound 0.0949 µM): 77.2% | viability, T/C (second compound 0.316 µM, first compound 0.3 µM): 74.2% | viability, T/C (second compound 1 µM, first compound 0.000949 µM): 99.3% | viability, T/C (second compound 1 µM, first compound 0.003 µM): 109% | viability, T/C (second compound 1 µM, first compound 0.00949 µM): 116% | viability, T/C (second compound 1 µM, first compound 0.03 µM): 102% | viability, T/C (second compound 1 µM, first compound 0.0949 µM): 96.9% | viability, T/C (second compound 1 µM, first compound 0.3 µM): 57.8% | viability, T/C (second compound 3.16 µM, first compound 0.000949 µM): 96.9% | viability, T/C (second compound 3.16 µM, first compound 0.003 µM): 102% | viability, T/C (second compound 3.16 µM, first compound 0.00949 µM): 92.4% | viability, T/C (second compound 3.16 µM, first compound 0.03 µM): 85.6% | viability, T/C (second compound 3.16 µM, first compound 0.0949 µM): 86.7% | viability, T/C (second compound 3.16 µM, first compound 0.3 µM): 52.5% | viability, T/C (second compound 10 µM, first compound 0.000949 µM): 82.9% | viability, T/C (second compound 10 µM, first compound 0.003 µM): 88.5% | viability, T/C (second compound 10 µM, first compound 0.00949 µM): 90% | viability, T/C (second compound 10 µM, first compound 0.03 µM): 65.5% | viability, T/C (second compound 10 µM, first compound 0.0949 µM): 54.6% | viability, T/C (second compound 10 µM, first compound 0.3 µM): 30.5%

Nc1ccccc1NC(=O)c1ccc(CNC(=O)OCc2cccnc2)cc1 + Cc1cncc(-c2nc(NCCc3c[nH]c4ccccc34)c3ncn(C(C)C)c3n2)c1
IC50 (second compound 0.1 µM): 478 nM | IC50 (second compound 0.316 µM): 614 nM | IC50 (second compound 1 µM): 540 nM | IC50 (second compound 3.16 µM): 651 nM | IC50 (second compound 10 µM): 591 nM | viability, T/C (second compound 0.1 µM, first compound 0.0316 µM): 87.4% | viability, T/C (second compound 0.1 µM, first compound 0.1 µM): 74.2% | viability, T/C (second compound 0.1 µM, first compound 0.316 µM): 57.6% | viability, T/C (second compound 0.1 µM, first compound 1 µM): 38.3% | viability, T/C (second compound 0.1 µM, first compound 3.16 µM): 12.1% | viability, T/C (second compound 0.1 µM, first compound 10 µM): 0.58% | viability, T/C (second compound 0.316 µM, first compound 0.0316 µM): 75.1% | viability, T/C (second compound 0.316 µM, first compound 0.1 µM): 78.7% | viability, T/C (second compound 0.316 µM, first compound 0.316 µM): 60% | viability, T/C (second compound 0.316 µM, first compound 1 µM): 42% | viability, T/C (second compound 0.316 µM, first compound 3.16 µM): 13% | viability, T/C (second compound 0.316 µM, first compound 10 µM): 0.65% | viability, T/C (second compound 1 µM, first compound 0.0316 µM): 96.3% | viability, T/C (second compound 1 µM, first compound 0.1 µM): 81.4% | viability, T/C (second compound 1 µM, first compound 0.316 µM): 67.4% | viability, T/C (second compound 1 µM, first compound 1 µM): 31.9% | viability, T/C (second compound 1 µM, first compound 3.16 µM): 11.4% | viability, T/C (second compound 1 µM, first compound 10 µM): 0.72% | viability, T/C (second compound 3.16 µM, first compound 0.0316 µM): 87.1% | viability, T/C (second compound 3.16 µM, first compound 0.1 µM): 85.2% | viability, T/C (second compound 3.16 µM, first compound 0.316 µM): 69.8% | viability, T/C (second compound 3.16 µM, first compound 1 µM): 38.3% | viability, T/C (second compound 3.16 µM, first compound 3.16 µM): 9.78% | viability, T/C (second compound 3.16 µM, first compound 10 µM): 1.22% | viability, T/C (second compound 10 µM, first compound 0.0316 µM): 82.2% | viability, T/C (second compound 10 µM, first compound 0.1 µM): 85.5% | viability, T/C (second compound 10 µM, first compound 0.316 µM): 63.5% | viability, T/C (second compound 10 µM, first compound 1 µM): 38.1% | viability, T/C (second compound 10 µM, first compound 3.16 µM): 8.35% | viability, T/C (second compound 10 µM, first compound 10 µM): 1.86%
